# Laboratory results published in publication PMC6030096, “Synergy of Physico-chemical and Biological Experiments for Developing a Cyclooxygenase-2 Inhibitor” (Scientific Reports, 2018).
# Experiments:
# COX-1 [1] = molecular target: T1, COX-1 (Ovis aries, UniProt P05979); settings: previously reported compounds 1 and 2; cited from earlier work
# T1 construct: purchased Cayman Chemical Co. 560131
# T1 sequence (P05979 25-600): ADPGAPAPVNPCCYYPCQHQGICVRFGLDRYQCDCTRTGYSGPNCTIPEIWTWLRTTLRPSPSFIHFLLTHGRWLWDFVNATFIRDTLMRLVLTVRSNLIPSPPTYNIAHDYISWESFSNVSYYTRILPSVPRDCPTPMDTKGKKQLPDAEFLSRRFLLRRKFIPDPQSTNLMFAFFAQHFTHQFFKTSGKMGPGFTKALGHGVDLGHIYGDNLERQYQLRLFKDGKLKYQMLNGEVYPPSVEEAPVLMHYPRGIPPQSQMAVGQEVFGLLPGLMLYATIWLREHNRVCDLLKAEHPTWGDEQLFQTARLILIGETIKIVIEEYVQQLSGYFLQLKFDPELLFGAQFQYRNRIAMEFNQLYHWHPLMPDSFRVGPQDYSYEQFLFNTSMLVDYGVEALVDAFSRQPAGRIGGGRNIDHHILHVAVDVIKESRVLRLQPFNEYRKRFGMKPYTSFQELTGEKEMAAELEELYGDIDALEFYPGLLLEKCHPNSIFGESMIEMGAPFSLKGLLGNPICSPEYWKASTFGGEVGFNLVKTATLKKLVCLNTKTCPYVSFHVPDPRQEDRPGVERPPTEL
# [2] = test system: carrageenan induced paw edema; assay: Carrageenan induced paw edema, effect on pre-existing inflammation; assay type: in vivo, rat; settings: 10 mg kg^−1 ip 60 min after carrageenan
# Procedure: Paw thickness (mm) was used as an index of inflammation and measured at 30 min, 1 h, 2 h, 3 h, 4 h, 5 h, 6 h, 8 h, and 24 h after the carrageenan injection.
# Paw thickness (mm) was used as index of inflammation and measured at 30 min, 1 h, 2 h, 3 h, 4 h, 5 h, 6 h, 8 h, and 24 h after the carrageenan injection.
# [3] = test system: acetic acid induced writhings in rat; assay: Acetic acid induced writhing (analgesic activity); settings: ip
# Procedure: In-vivo biological experiments were performed on male wistar rat (250–300 g). […] The animals were given free supply of food and water. […] Acetic acid induced algesia model and carragennan induced inflammatory model were used for these studies. […] All the doses were administered intraperitoneally.
# Analgesic activity was studied using acetic acid induced writhing. Animals in 13 groups, each consisting of 5 animals, were used. Intraperitoneal administration of 0.6% acetic acid induced abdominal writhings that were characterized by arching of back, extension of hind limbs and contraction of abdominal musculature[36]. […] All the drugs were administered intraperitoneally.
# COX-1 [4] = molecular target: T2, COX-1 (Homo sapiens, UniProt P23219); assay: Human whole blood assay for COX-1 (A23187 stimulated TxB2); assay type: cell-based
# T2 construct: endogenous in cells; host or cells: human whole blood (heparinized, venipuncture)
# Source text: (§1) The use of human blood for the whole blood assay was duly approved by the institutional ethical committee of the University for human subjects. Production of prostaglandin PGE2 during lipopolysaccharide (LPS) stimulated whole blood was used to quantify COX-2 inhibitory activity whereas calcium ionophore (A23187) stimulated thromboxane (TxB2) production was used to measure COX-1 inhibitory activity of the compounds.
# Approval for the use of human blood was taken from the institutional ethical committee of Guru Nanak Dev University Amritsar and informed consent was obtained from the subject[32],[33]. All experiments were performed in accordance with the relevant guidelines and regulations. By venipuncture, the blood sample was collected in heparinized tubes. […] Each sample in duplicate was assayed for TxB2 (the breakdown product of TxA2) using TXB2 Express ELISA kit (Cayman Chemicals, Ann Arbor, MI) by the reported protocol.
# COX-2 = molecular target: T3, COX-2 (Homo sapiens, UniProt P35354); assay: Human whole blood assay for COX-2 (LPS stimulated PGE2); assay type: cell-based; set-up: endogenous in cells; host or cells: human whole blood, aspirin-pretreated, LPS-stimulated
# T3 sequence (P35354 18-604): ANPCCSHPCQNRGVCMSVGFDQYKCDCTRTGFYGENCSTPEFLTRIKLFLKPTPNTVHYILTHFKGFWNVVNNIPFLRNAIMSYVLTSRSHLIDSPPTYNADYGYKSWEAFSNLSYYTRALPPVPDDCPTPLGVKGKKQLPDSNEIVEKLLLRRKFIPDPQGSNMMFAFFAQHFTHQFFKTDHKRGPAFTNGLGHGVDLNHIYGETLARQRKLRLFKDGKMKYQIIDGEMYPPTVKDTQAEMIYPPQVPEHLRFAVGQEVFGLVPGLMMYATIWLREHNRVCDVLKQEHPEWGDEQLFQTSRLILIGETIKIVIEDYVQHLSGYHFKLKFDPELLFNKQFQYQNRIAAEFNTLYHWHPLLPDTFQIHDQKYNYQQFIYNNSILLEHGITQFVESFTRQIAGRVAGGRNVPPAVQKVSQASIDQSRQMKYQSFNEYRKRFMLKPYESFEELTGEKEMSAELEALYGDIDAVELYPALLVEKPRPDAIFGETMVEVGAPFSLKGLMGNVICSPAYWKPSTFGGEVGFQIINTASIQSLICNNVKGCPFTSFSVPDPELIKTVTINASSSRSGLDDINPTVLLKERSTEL
# Procedure: as §1
# COX-2 assay was performed by inactivating COX-1 with 50 µL aspirin (10 µg/mL) per 400 µL of blood sample.
# [5] = molecular target: T4, 5-LOX (Soybean lipoxygenase) (Glycine max, UniProt P08170); assay: Lipoxygenase inhibitory activity assay; assay type: biochemical
# T4 construct: purchased Cayman Chemical Co. 760700
# T4 sequence (P08170 1-839): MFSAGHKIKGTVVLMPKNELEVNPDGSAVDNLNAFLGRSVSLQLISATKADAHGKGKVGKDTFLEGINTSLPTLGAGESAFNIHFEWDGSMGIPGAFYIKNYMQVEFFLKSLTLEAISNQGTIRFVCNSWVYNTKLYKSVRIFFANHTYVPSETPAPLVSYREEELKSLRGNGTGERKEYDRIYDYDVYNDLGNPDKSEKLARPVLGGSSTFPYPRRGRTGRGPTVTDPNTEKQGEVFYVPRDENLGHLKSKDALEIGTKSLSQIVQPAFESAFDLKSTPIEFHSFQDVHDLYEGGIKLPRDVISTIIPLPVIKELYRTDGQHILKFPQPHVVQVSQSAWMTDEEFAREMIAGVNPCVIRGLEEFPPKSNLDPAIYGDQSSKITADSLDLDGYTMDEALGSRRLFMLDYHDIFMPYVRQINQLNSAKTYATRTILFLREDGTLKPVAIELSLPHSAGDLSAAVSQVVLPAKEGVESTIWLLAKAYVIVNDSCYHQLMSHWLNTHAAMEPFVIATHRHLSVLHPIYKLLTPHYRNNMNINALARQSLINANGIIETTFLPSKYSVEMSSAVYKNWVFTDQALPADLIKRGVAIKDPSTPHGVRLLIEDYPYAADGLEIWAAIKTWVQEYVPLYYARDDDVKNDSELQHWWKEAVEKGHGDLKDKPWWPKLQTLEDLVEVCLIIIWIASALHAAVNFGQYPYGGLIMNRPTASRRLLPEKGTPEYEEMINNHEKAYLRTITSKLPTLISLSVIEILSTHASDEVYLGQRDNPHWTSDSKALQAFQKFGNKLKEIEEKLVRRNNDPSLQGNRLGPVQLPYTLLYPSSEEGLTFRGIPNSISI
# Procedure: 10 µL of the compound of each concentration was mixed with 90 µL 5-LOX (Soybean lipoxygenase in assay buffer) in the specified wells of the 96-well plate. Two wells containing assay buffer and AA acted as blanks whereas four wells, each carrying enzyme and AA, were positive controls. 10 µL AA was added to each test well and the plate was shaken for 5 min. Chromogen (100 µL) was added to each well and the plate was again shaken for 5 min. The absorbance of each well at 490 nm was recorded on microplate scanning spectrophotometer. As per the protocol given with the assay kit, the 5-LOX inhibitory activity for each compound at each concentration was determined using the mean of the two values (duplicate experiments) with deviation <5%.
# COX-1 [6] = molecular target: T1, COX-1; assay: Isothermal titration calorimetry with COX-1; assay type: binding; settings: ITC
# Procedure: 100 µM solution of the compound in HPLC grade DMSO and Tris-HCl buffer (1:9) (pH 7.4) was prepared. 5 µL of enzyme was diluted with 500 µL Tris-HCl buffer. 19 consecutive injections of 2 µL each at 120 s interval were made to the enzyme solution taken in the sample cell. The heat change in the cell was determined. The control titrations for determining the background heat (that was subtracted from the main experiment) were performed by taking buffer solution in the cell and making successive additions of the titrant. The titration heat profiles and the binding parameters were read with Microcal software origin 7.0.
# [7] = test system: carrageenan-induced inflammation in rat; assay: Carrageenan induced paw inflammation (pretreatment)
# Procedure: In-vivo biological experiments were performed on male wistar rat (250–300 g). […] The animals were given free supply of food and water. The use of animals for the biological studies was duly permitted by the institutional animal ethical committee (IAEC) of the University. […] All the doses were administered intraperitoneally.
# The paw thickness of the animals was measured with vernier callipre at 1 h intervals up to the 5th hour and compared with the control.
# For anti-inflammatory activity, carageenan induced paw edema model with three groups of animals, 5 in each, were used[22]. All the drugs were administered intraperitoneally.
# T2 sequence (P23219 24-599): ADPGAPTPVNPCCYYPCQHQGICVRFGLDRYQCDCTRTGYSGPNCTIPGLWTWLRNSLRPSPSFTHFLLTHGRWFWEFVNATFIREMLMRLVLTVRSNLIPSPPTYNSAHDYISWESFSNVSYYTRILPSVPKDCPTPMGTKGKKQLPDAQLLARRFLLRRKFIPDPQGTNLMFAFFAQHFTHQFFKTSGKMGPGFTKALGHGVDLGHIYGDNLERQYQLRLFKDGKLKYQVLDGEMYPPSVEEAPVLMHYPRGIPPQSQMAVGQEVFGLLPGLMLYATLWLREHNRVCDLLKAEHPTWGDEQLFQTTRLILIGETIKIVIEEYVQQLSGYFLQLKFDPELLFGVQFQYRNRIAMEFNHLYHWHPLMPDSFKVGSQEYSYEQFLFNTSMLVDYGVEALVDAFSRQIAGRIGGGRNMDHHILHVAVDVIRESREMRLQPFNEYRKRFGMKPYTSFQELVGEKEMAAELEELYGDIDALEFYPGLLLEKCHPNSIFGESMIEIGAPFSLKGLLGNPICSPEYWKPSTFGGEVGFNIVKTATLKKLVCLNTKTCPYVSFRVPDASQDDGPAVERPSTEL
smiles,measurement,setting,value
CC1=NN(c2cccc(Cl)c2)C(=O)C1=Cc1cn(CCCOc2cc(O)c3c(=O)cc(-c4ccccc4)oc3c2)c2ccccc12 [Compound 1],IC50,COX-1 [1],118 ± 5.5 µM
"COc1ccc2c(c1)c(CC(=O)O)c(C)n2C(=O)c1ccc(Cl)cc1 [Indomethacin, reference compound]",effect on pre-existing paw edema (paw thickness),[2]; after 5 h of treatment,decrease paw edema
same,duration of decrease in paw edema,[2]; after 24 h of treatment,sustained even after 24 h
same,effect on number of acetic acid induced writhing vs control,[3],significantly decreased
O=C1NC(=O)C(=Cc2cn(C[C@H](O)Cn3c4ccccc4c(=O)c4ccccc43)c3ccccc23)C(=O)N1 [(S)-3a],effect on ionophore stimulated TxB2 production,COX-1 [4]; 1 µM,had no effect
same,"Production of TXB2, +Ca^2+ Ionophore","COX-1 [4]; final conc 1 µM, A23187 50 µM",1.95 ± 0.01 ng/mL
same,effect on LPS stimulated PGE2 production,COX-2; 1 µM,inhibited LPS stimulated PGE2 production
same,"Production of PGE2, +LPS","COX-2; final conc 1 µM, LPS 10 µg mL^−1",0.93 ± 0.1 ng/mL
same,IC50,[5],200 ± 15 nM
same,TΔS,COX-1 [6],-3.47 kJ/mol
same,ΔG,COX-1 [6],-18.01 kJ/mol
same,ΔH,COX-1 [6],-21.48 kJ/mol
same,reduction of carrageenan induced inflammation,[7]; 10 mg kg^−1,25%
same,effect on paw inflammation compared with indomethacin,[7]; end of 4th and 5th hour,comparable to that of indomethacin
same,effect on carageenan induced paw inflammation (paw thickness),"[7]; ip 30 min before carageenan, measured up to 5th hour",Significant decrease
